Assay [1] concerns the target HRAS wild-type protein (Homo sapiens, UniProt P01112). As to the kind of experiment: Binding to HRAS by surface plasmon resonance (SPR), KD and KD ratio to KRAS. As to conditions: ratio of KD for HRAS wild-type protein to KD for KRAS. Summed up: (§1)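 Single-cycle kinetics on GDP-loaded biotin-Avi RAS captured to ~100–300 RU; 75 s ascending injections, 100 µL/min, 30°C. HBS pH 7.4 + 10 mM MgCl2/10 µM GDP/4% DMSO. 1:1 fit, KD.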
Background: Surface plasmon resonance follows binding to a sensor surface in real time, without labels.

In assay [2] the target is GDP-bound KRAS wild-type protein (Homo sapiens, UniProt P01116). As to the kind of experiment: Binding to KRAS by surface plasmon resonance (SPR), dissociation constant KD. Summed up: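 Each cycle, GDP-bound biotin-Avi RAS was captured (~100–300 RU), compound concentrations were injected low to high for 75 s each at 100 µL/min, then the chip was regenerated. Buffer: HBS pH 7.4, 10 mM MgCl2, 10 µM GDP, 1 mM DTT, 4% DMSO; 30°C. KD from a 1:1 binding model.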
Sequence of GDP-bound KRAS wild-type protein (P01116 1-188 isoform P01116-2): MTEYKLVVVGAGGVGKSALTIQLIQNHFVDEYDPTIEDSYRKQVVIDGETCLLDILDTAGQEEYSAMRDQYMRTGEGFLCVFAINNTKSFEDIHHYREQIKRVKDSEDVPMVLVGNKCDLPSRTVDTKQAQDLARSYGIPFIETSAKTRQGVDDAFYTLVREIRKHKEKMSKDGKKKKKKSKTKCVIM

The test system of assay [3] is human lung cancer strain NCI-H441. As to the kind of experiment: NCI-H441 cell proliferation inhibitory activity (CellTiter-Glo, 4 days). Type of assay: cell-based. The conditions noted are these: NCI-H441 cells, 4 days, read-out: NCl-H441 IC50. Summed up:
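Proliferation was scored by […] measured after the reagent was added to cultures kept at 37°C in 5% carbon dioxide.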
For orientation: Cellular ATP, detected with luciferase, serves as a proxy for viable cell number.

Assay [4] has as its target GDP-bound NRAS wild-type protein (Homo sapiens, UniProt P01111). In words: Binding to NRAS by surface plasmon resonance (SPR), KD and KD ratio to KRAS. As to conditions: ratio of KD for GDP-bound NRAS wild-type protein to KD for KRAS. Summed up:
as §1

Sequence of GDP-bound NRAS wild-type protein (P01111 whole entry): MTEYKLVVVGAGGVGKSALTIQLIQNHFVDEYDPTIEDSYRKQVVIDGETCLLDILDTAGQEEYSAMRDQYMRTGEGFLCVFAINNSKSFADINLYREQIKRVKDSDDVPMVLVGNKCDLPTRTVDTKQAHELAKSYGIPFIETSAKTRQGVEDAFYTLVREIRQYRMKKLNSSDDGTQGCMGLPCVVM
Sequence of HRAS wild-type protein (P01112 whole entry): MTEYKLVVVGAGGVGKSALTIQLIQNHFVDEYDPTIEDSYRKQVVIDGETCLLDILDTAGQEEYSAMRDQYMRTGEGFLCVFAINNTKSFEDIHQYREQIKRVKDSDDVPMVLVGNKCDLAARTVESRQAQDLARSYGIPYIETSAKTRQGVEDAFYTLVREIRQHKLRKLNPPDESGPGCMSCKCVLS

In general, Kd refers to the concentration at which binding is half-saturated. Read a high Kd as weaker binding. Usually IC50 stands for the concentration that gives 50% inhibition. Consider `CCC[C@H]1C(=O)N[C@@H]([C@@H](C)CC)C(=O)N(C)CC(=O)N(C)[C@H]2C/C=C\CCN(C2=O)[C@@H](Cc2ccc(C(F)(F)F)cc2)C(=O)N(C)CC(=O)N[C@@H](CCc2ccc(Cl)c(Cl)c2)C(=O)N2C[C@H](OCC)C[C@H]2C(=O)NC2(CC(C)(C)C2)C(=O)N(C)[C@@H](CC2CCC2)C(=O)N(C)[C@H](C(=O)N(C)C)CC(=O)N1C` [PP2766], for which the “HRAS /KRAS” value in assay [1] was “A (a compound having 10 or more and less than 20 is denoted as A)”. The affinity in assay [2] (1:1 binding model), expressed as Kd, was 0.52 nM. Moreover, the IC50 in assay [3] turned out to be 26 nM. Also, the “NRAS /KRAS” value in assay [4] was “A (a compound having 10 or more and less than 20 is denoted as A)”.
With `CCOC[C@H]1C(=O)N[C@@H]([C@@H](C)CC)C(=O)N(C)CC(=O)N(C)[C@H]2C/C=C\CCN(C2=O)[C@@H](Cc2ccc(C(F)(F)F)cc2)C(=O)N(C)CC(=O)N[C@@H](CCc2ccc(Cl)c(Cl)c2)C(=O)N2C[C@H](OCC)C[C@H]2C(=O)NC2(CC(C)(C)C2)C(=O)N(C)[C@@H](CC2CCC2)C(=O)N(C)[C@H](C(=O)N(C)C)CC(=O)N1C` [PP2767], in assay [1], the “HRAS /KRAS” value was “A (a compound having 10 or more and less than 20 is denoted as A)”. In assay [2] (1:1 binding model), binding was put at a Kd of 0.49 nM. Further, the IC50 in assay [3] came to 62.6 nM. The “NRAS /KRAS” value in assay [4] is “A (a compound having 10 or more and less than 20 is denoted as A)”.
In the case of `CCO[C@@H]1C[C@H]2C(=O)NC3(CC(C)(C)C3)C(=O)N(C)[C@@H](C3CCCC3)C(=O)N(C)[C@H](C(=O)N(C)CC)CC(=O)N(C)[C@@H]([C@H](C)OC)C(=O)N[C@@H]([C@@H](C)CC)C(=O)N3CCC[C@H]3C(=O)N(C)[C@H]3C/C=C\CCN(C3=O)[C@@H](Cc3ccc(C)cc3)C(=O)N(C)CC(=O)N[C@@H](CCc3ccc(C(F)(F)F)c(Cl)c3)C(=O)N2C1` [PP3165], the “HRAS /KRAS” value in assay [1] is “A (a compound having 10 or more and less than 20 is denoted as A)”. The molecule also yielded a Kd in assay [2] (Single Cycle Kinetics) of 1.9 nM. The IC50 in assay [3] stood at 480 nM. Besides, in assay [4], the “NRAS /KRAS” value is “A (a compound having 10 or more and less than 20 is denoted as A)”.
`CCO[C@@H]1C[C@H]2C(=O)NC3(CC(C)(C)C3)C(=O)N(C)[C@@H](C3CCCC3)C(=O)N(C)[C@H](C(=O)N(C)C)CC(=O)N(C)[C@@H]([C@H](C)OC)C(=O)N[C@@H]([C@@H](C)CC)C(=O)N(C)CC(=O)N(C)[C@H]3C/C=C\CCN(C3=O)[C@@H](Cc3ccc(C(F)(F)F)cc3)C(=O)N(C)CC(=O)N[C@@H](CCc3ccc(C(F)(F)F)c(OC)c3)C(=O)N2C1` [PP3167]: the “HRAS /KRAS” value in assay [1] is “A (a compound having 10 or more and less than 20 is denoted as A)”. In addition, in assay [2] (Single Cycle Kinetics), the affinity, expressed as Kd, was 0.1 nM. In addition, in assay [3], the IC50 came to 9.8 nM. For the same molecule, in assay [4], the “NRAS /KRAS” value was “B (a compound having 3 or more and less than 10 is denoted as B)”.
For `CCO[C@@H]1C[C@H]2C(=O)NC3(CC(C)(C)C3)C(=O)N(C)[C@@H](C3CCCC3)C(=O)N(C)[C@H](C(=O)N(C)C)CC(=O)N(C)[C@@H]([C@H](C)OC)C(=O)N[C@@H]([C@@H](C)CC)C(=O)N(C)CC(=O)N(C)[C@H]3C/C=C\CCN(C3=O)[C@@H](Cc3ccc(C(F)(F)F)cc3)C(=O)N(C)CC(=O)N[C@@H](CCc3cc(F)c(C(F)(F)F)c(F)c3)C(=O)N2C1` [PP3169], the “HRAS /KRAS” value in assay [1] is “A (a compound having 10 or more and less than 20 is denoted as A)”. Binding in assay [2] (Single Cycle Kinetics) was characterised by a dissociation constant (Kd) of 0.064 nM. Besides, the IC50 in assay [3] came to 7.9 nM. Also, the “NRAS /KRAS” value in assay [4] was “A (a compound having 10 or more and less than 20 is denoted as A)”.
Consider `CCO[C@@H]1C[C@H]2C(=O)NC3(CC(C)(C)C3)C(=O)N(C)[C@@H](C3CCCC3)C(=O)N(C)[C@H](C(=O)N(C)CC)CC(=O)N(C)[C@@H]([C@@H](C)OC)C(=O)N[C@@H]([C@@H](C)CC)C(=O)N3CCC[C@H]3C(=O)N(C)[C@H]3C/C=C\CCN(C3=O)[C@@H](Cc3ccc(C(F)(F)F)cc3)C(=O)N(C)CC(=O)N[C@@H](CCc3ccc(C(F)(F)F)c(OC)c3)C(=O)N2C1` [PP3170], for which, in assay [1], the “HRAS /KRAS” value is “A (a compound having 10 or more and less than 20 is denoted as A)”. Moreover, the Kd in assay [2] (Single Cycle Kinetics) came to 0.84 nM. Besides, in assay [3], the IC50 was found to be 42.5 nM. For the same molecule, the “NRAS /KRAS” value in assay [4] is “A (a compound having 10 or more and less than 20 is denoted as A)”.
Regarding `CCO[C@@H]1C[C@H]2C(=O)NC3(CC(C)(C)C3)C(=O)N(C)[C@@H](C3CCCC3)C(=O)N(C)[C@H](C(=O)N(C)C)CC(=O)N(C)[C@@H]([C@H](C)OC)C(=O)N[C@@H]([C@@H](C)CC)C(=O)N(C)CC(=O)N(C)[C@H]3C/C=C\CCN(C3=O)[C@@H](Cc3ccc(C(F)(F)F)cc3)C(=O)N(C)CC(=O)N[C@@H](CCc3ccc(C(F)(F)F)c(Cl)c3)C(=O)N2C1` [PP3171], the “HRAS /KRAS” value in assay [1] is “A (a compound having 10 or more and less than 20 is denoted as A)”. Further, the Kd in assay [2] (Single Cycle Kinetics) was found to be 0.076 nM. Moreover, in assay [3], the IC50 was 15.9 nM. The “NRAS /KRAS” value in assay [4] was “A (a compound having 10 or more and less than 20 is denoted as A)”.
As to `CCO[C@@H]1C[C@H]2C(=O)NC3(CC(C)(C)C3)C(=O)N(C)[C@@H](C3CCCC3)C(=O)N(C)[C@H](C(=O)N(C)CC)CC(=O)N(C)[C@@H]([C@@H](C)OC)C(=O)N[C@@H]([C@@H](C)CC)C(=O)N3CCC[C@H]3C(=O)N(C)[C@H]3C/C=C\CCN(C3=O)[C@@H](Cc3ccc(C(F)(F)F)cc3)C(=O)N(C)CC(=O)N[C@@H](CCc3cc(F)c(C(F)(F)F)c(F)c3)C(=O)N2C1` [PP3172], the “HRAS /KRAS” value in assay [1] is “A (a compound having 10 or more and less than 20 is denoted as A)”. The molecule further returned a Kd in assay [2] (Single Cycle Kinetics) of 0.81 nM. For the same molecule, the IC50 in assay [3] came to 69.9 nM. Further, the “NRAS /KRAS” value in assay [4] is reported as “AA (a compound having 20 or more is denoted as AA)”.
On to `CCO[C@@H]1C[C@H]2C(=O)NC3(CC(C)(C)C3)C(=O)N(C)[C@@H](C3CCCC3)C(=O)N(C)[C@H](C(=O)N(C)C)CC(=O)N(C)[C@@H]([C@H](C)OC)C(=O)N[C@@H]([C@@H](C)CC)C(=O)N(C3CC3)CC(=O)N(C)[C@H]3C/C=C\CCN(C3=O)[C@@H](Cc3ccc(C(F)(F)F)cc3)C(=O)N(C)CC(=O)N[C@@H](CCc3ccc(C(F)(F)F)c(OC)c3)C(=O)N2C1` [PP3173], for which the “HRAS /KRAS” value in assay [1] is “B (a compound having 3 or more and less than 10 is denoted as B)”. In assay [2] (Single Cycle Kinetics), this molecule displayed a Kd of 0.57 nM. Also, in assay [3], the IC50 stood at 33.1 nM. Further, in assay [4], the “NRAS /KRAS” value is “B (a compound having 3 or more and less than 10 is denoted as B)”.
As to `CCO[C@@H]1C[C@H]2C(=O)NC3(CC(C)(C)C3)C(=O)N(C)[C@@H](C3CCCC3)C(=O)N(C)[C@H](C(=O)N(C)CC)CC(=O)N(C)[C@@H]([C@@H](C)OC)C(=O)N[C@@H]([C@@H](C)CC)C(=O)N3CCC[C@H]3C(=O)N(C)[C@H]3C/C=C\CCN(C3=O)[C@@H](Cc3ccc(C(F)(F)F)cc3)C(=O)N(C)CC(=O)N[C@@H](CCc3ccc(C(F)(F)F)c(Cl)c3)C(=O)N2C1` [PP3174], in assay [1], the “HRAS /KRAS” value is “A (a compound having 10 or more and less than 20 is denoted as A)”. Moreover, the Kd in assay [2] (Single Cycle Kinetics) came to 1.1 nM. Moreover, the IC50 in assay [3] is 105 nM. For the same molecule, the “NRAS /KRAS” value in assay [4] is reported as “AA (a compound having 20 or more is denoted as AA)”.
On to `CCO[C@@H]1C[C@H]2C(=O)NC3(CC(C)(C)C3)C(=O)N(C)[C@@H](C3CCCC3)C(=O)N(C)[C@H](C(=O)N(C)C)CC(=O)N(C)[C@@H]([C@H](C)OC)C(=O)N[C@@H]([C@@H](C)CC)C(=O)N(C3CC3)CC(=O)N(C)[C@H]3C/C=C\CCN(C3=O)[C@@H](Cc3ccc(C(F)(F)F)cc3)C(=O)N(C)CC(=O)N[C@@H](CCc3cc(F)c(C(F)(F)F)c(F)c3)C(=O)N2C1` [PP3175], for which the “HRAS /KRAS” value in assay [1] was “A (a compound having 10 or more and less than 20 is denoted as A)”. This molecule also came in with an equilibrium dissociation constant (Kd) in assay [2] (Single Cycle Kinetics) of 0.31 nM. Moreover, the IC50 in assay [3] amounted to 15.3 nM. For the same molecule, the “NRAS /KRAS” value in assay [4] is “A (a compound having 10 or more and less than 20 is denoted as A)”.

These data come from patent EP4603105A1, “PHARMACEUTICAL COMPOSITION CONTAINING CYCLIC COMPOUND HAVING SELECTIVE KRAS INHIBITORY EFFECT AGAINST HRAS AND NRAS” (CHUGAI SEIYAKU KABUSHIKI KAISHA, priority 2022, dated 2024).
